# According to patent US5106857A, “N-(1-methyl-3-pyrrolidinyl)-1-(phenylmethyl)-1H-benzimidazol-2-amine and analogs as antiarrhythmic and muscle relaxing agents” (A. H. Robins Company, Incorporated, priority 1991, dated 1992):
# Legend:
# [1] = test system: morphine-induced Straub Tail; test: Morphine-induced Straub Tail in Mice Test (muscle relaxant); assay type: in vivo; settings: scored 30 min after test compound; for ED50: Mus musculus, 0.5 h, IP, morphine sulfate 60 mg/kg s.c. 15 min later, read-out: Straub Tail Inhibition ED50
# Protocol: Administration of morphine sulfate to a mouse causes the tail to become elevated perpendicular to the body. […] The test procedure relied on to indicate positive muscle relaxant activity is the morphine-induced Straub Tail in Mice Test described by G. D. Novak in DRUG DEVELOPMENT RESEARCH (1982) 2: 383-386, except 8 animals per group were used per test rather than 10. The test is summarized as follows: The test drug, reference drug, and control articles to be administered are prepared in saline, 0.5% aqueous methylcellulose suspension or other, depending on solubility, in such concentration that the volume administered is 10 ml/kg. The initial screening dose of the test drug is usually 100 mg/kg. Groups of 8 mice are given an IP dose of a compound or vehicle prepared as described above. After 15 min, mice are administered morphine sulfate, 60 mg/kg in saline, subcutaneously. Fifteen minutes after administration of morphine (i.e., 30 min after test compound administration), mice were scored for presence of Straub Tail defined as an elevation of the tail at least 90 degrees from the horizontal. An ED50 value may be determined from at least three logarithmically spaced doses by the method of Litchfield and Wilcoxon (1949), J. PHARMACOL. EXP. THER. 96: 99-113.
# [2] = test system: cardiac arrhythmias (coronary artery occlusion); test: Coronary artery ligation induced arrhythmias (conscious dogs); assay type: in vivo, dog (adult mongrel); settings: for Antiarrhythmic Activity: Number of dogs in which drug is considered active/number treated: active = normal sinus rhythm within 2 hours
# Protocol: Cardiac arrhythmias in dogs are induced by surgically restricting blood flow in a coronary artery. The test compound is administered intravenously and the heart rate and number and percentage of ectopic beats recorded at 15 minute intervals.
# Adult mongrel dogs which are in the conscious state were used for the test and cardiac arrhythmias were induced by prior (22-24 hr) surgical preparation in which blood flow through a coronary artery was occluded by use of a constrictor device as reported by Smith et al, 1973. A Grass Model 79 Polygraph was used for recording the electrocardiogram (Grass 7P4 Preamplifier).
# The test compound was administered by infusion (Harvard Model 942 Infusion Pump) into a saphenous vein to the test group of dogs at a rate of 0.5 mg/kg/min. Concentration of compound was adjusted according to the weight of the dog to allow a volume of infusion of 0.5 ml/min. Following the administration of the test compound, the heart rate, number of ectopic beats (ectopic beats/HR×1000) were recorded at 15 min intervals. The compound was considered active if it abolished the ectopic ventricular frequency and caused a return to normal sinus rhythm within 2 hours of administration. Cardiac arrhythmias produced by modification of method of Harris, 1950, Circulation 1, 1318, as reported by Smith et al, 1973, Pharmacologist 15, 192.
smiles,measurement,setting,value
"CCN1CCC(Nc2nc3ccccc3n2CC)C1 (stereo not shown) [Compound 1, 1-Ethyl-N-(1-ethyl-3-pyrrolidinyl)-1H-benzimidazol-2-amine]",ED50,[1],36 mg/kg
same,Antiarrhythmic Activity: Number of dogs in which drug is considered active/number treated,[2]; dose 5 mg/kg IV,1/2
"CCn1c(NC2CCN(C)C2)nc2ccccc21 (stereo not shown) [Compound 2, 1-Ethyl-N-(1-methyl-3-pyrrolidinyl)-1H-benzimidazol-2-amine]",Antiarrhythmic Activity,[2]; dose 7 mg/kg IV,partially active (Reduces ectopic beats from 50-99%)
"CN1CCC(Nc2nc3ccccc3n2Cc2ccccc2)C1 (stereo not shown) [Compound 3, N-(1-Methyl-3-pyrrolidinyl)-1-(phenylmethyl)-1H-benzimidazol-2-amine]",ED50,[1],21 mg/kg
same,Antiarrhythmic Activity: Number of dogs in which drug is considered active/number treated,[2]; dose 7 mg/kg IV,7/8
"CN1CCC(Nc2nc3ccccc3n2Cc2ccccc2)CC1 [Compound 4, N-(1-Methyl-4-piperidinyl)-1-(phenylmethyl)-1H-benzimidazol-2-amine]",Straub Tail Inhibition %,[1]; dose 100 mg/kg IP,-25%
same,Antiarrhythmic Activity: Number of dogs in which drug is considered active/number treated,[2]; dose 9 mg/kg IV,2/6
